≈ marks a conversion by molar mass, not a printed value. Read-outs that look alike come from different tables or passages of the source.
Experiments:
[1] = test system: Dtr (Drechsiera tritici-repentis); details: literature value, cited from earlier work
soybean rust [2] = test system: soybean rust; parameters: Control of soybean rust, crop 2005/06 / Control of soybean rust, crop 2012/13: concentration or dose not given beside the values; details: cited from earlier work; for Reduction (%) of control: 2005/06 versus 2012/13 crop; for Control of soybean rust, crop 2005/06 / Control of soybean rust, crop 2012/13: applied preventively; for Control of soybean rust, crop 2005/06: 2005/06 crop; for Control of soybean rust, crop 2012/13: 2012/13 crop
Drechsiera siccans = experiment: 50% inhibition of mycelium growth (IC50), five isolates, DMI fungicides; assay type: cell-based
Protocol: In the 2003 wheat crop for the first time, there was complaint of leaf spot control failure after continuous use of fungicides DMI+QoI, for 20 years. Until that time there were few reports of the sensitivity of the fungus that is causal agent of yellow spot to fungicides (Stoke, 2006; Tonin, 2009; Beard et al, 2009; Patel et al, 2012). The reference concentrations of sensitivity of Dtr to fungicides found in the literature were 0.17 mg/L in average for the epoxiconazole, propiconazole and tebuconazole. […] Comparing these values with the sensitivity of isolates of Brazil proves the reduced sensitivity occurring here (see Table 3).
Average of two experiments.

soybean rust [3] = experiment: Cooperative tests of fungicides (Embrapa Soybean): soybean rust control over crops, FIGS. 1-6; assay type: in vivo, Phakopsora pachyrhizi; details: from regression equation over crops; starting crop differs per fungicide
Excerpt: An example that reinforces the reported fact is the gradual reduction of tebuconazole control over the crops using it covering the period beginning in 2004/05 to 2013/14 (as FIG. 1).
The results of cooperative tests of fungicides, coordinated by Embrapa Soybean, Londrina, can bring the answer to these questions. The following graphs of FIGS. 2, 3, 4 and 5 show the reduction of rust control by fungicide mixtures traditionally used in soybeans over the past crops.
FIG. 1. Reduced soybean rust control by tebuconazole over […]. (Source: Cooperative tests of fungicides).
FIG. 2. Control Reduction of soybean rust by cyproconazole+azoxystrobin mixture over six crops. (Source: Cooperative tests of fungicides).
FIG. 3. Control Reduction of soybean rust by cyproconazole+picoxystrobin mixture over six crops. (Source: Cooperative tests of fungicides).
FIG. 4. Reduction control of soybean rust by epoxiconazole+pyraclostrobin mixture over six crops. (Source: Cooperative tests of fungicides).
FIG. 5. Average reduction of soybean rust control by mixtures of cyproconazole+azoxystrobin, cyproconazole+picoxystrobin and epoxiconazole+pyraclostrobin over six crops. (Source: Cooperative tests of fungicides).
FIG. 6. Control Reduction of soybean rust for azoxystrobin over six crops. (Source: Cooperative tests of fungicides).

soybean rust [4] = details: 2013/14 crop; cited from earlier work
[5] = test system: Drechsiera tritici-repentis; experiment: 50% inhibition of spore germination (CI50), five isolates, strobilurin fungicides; assay type: cell-based; details: for Reduction factor of the sensitivity, isolate 01/QTZ: CI50 of sensitivity reference 0.75 mg/L; for Reduction factor of the sensitivity, Average / Reduction factor of the sensitivity, isolate 02/ONX / Reduction factor of the sensitivity, isolate 03/HZT / Reduction factor of the sensitivity, isolate 04/GUA / Reduction factor of the sensitivity, isolate 05/CD: reference 0.75 mg/L
Protocol: However, the highest reduction of sensitivity of the Dtr to fungicides and what better explains the control failure claimed by producers is the CI50 obtained for QoIs fungicides (see Table 4).
Lowercase compare average in the column and capital letters in the line. Average of two experiments.
Taking as Cl50 standard of sensitivity, 0.75 mg/L (Table 4) obtained for pyraclostrobin, it is calculated the reduction factor of the sensitivity of the Dtr to QoIs fungicides (see Table 5).
Cl50 of sensitivity reference of 0.75 mg/L.
When the SRF is close to 1.0 there is no reduction of sensitivity. However, if >1 with different magnitude, it indicates reduced sensitivity of fungi to fungicides. In this case SRF ranged from 1.04 to >53 (see Table 5).

soybean rust [6] = details: crop 2010/11, cited from earlier work; for Control (%): evaluated by AUDPC; for Severity (%): untreated control 74.0
soybean rust [7] = experiment: Field experiments at various locations in Brazil: mancozeb alone or added to commercial mixtures against soybean rust; assay type: in vivo, Phakopsora pachyrhizi; details: mancozeb applied alone
Excerpt: (§1) However, its greatest contribution was proven when added to commercial blends bringing control to values of up to 80%, similar efficiency of mixtures “triazole+strobilurin” at the beginning of its use.
Therefore, the present invention used the same strategy as the solution to recover the original control levels (>80%) and make the useful life of the fungicides longer in controlling the target disease of the invention. This is because, mancozeb, being a multi-site protective fungicide and presenting a broad spectrum of action, will also contribute to the control of other diseases in soybean and also in wheat.
A study was conducted to determine the contribution of the mancozeb addition to mixtures of “strobilurin+triazoles.” The experiments were conducted in the field, in nine different locations, where it was determined the fungi toxicity of mancozeb to soybean rust.
Two doses were tested (1.5 and 2.0 kg/ha) with various numbers of mancozeb applications. The effect of mancozeb (1.5 kg/ha), incorporated into commercial mixtures was also tested.
The experiments were conducted with soybean cultivar Monsoy 9144 RR. Mancozeb formulation 750 WDG (water dispersible granules) was used, commercially available, for application of mancozeb according to Tables 6 and 7.

wheat leaf spots = experiment: Control of wheat leaf spots by DMI + QoI mixtures with or without mancozeb; assay type: in vivo, Drechsiera tritici-repentis; details: various locations in Brazil
Excerpt: as §1
With the addition of mancozeb, by using the method anti-resistance described in the present invention, the control has been quite improved (33.3% also as shown in Table 8).

[8] = average of five isolates, read-out: IC50 Average
[9] = isolate 01/F30, average of two experiments, read-out: IC50 isolate 01/F30
[10] = isolate 02/RZ, read-out: IC50 isolate 02/RZ
[11] = isolate 03/SF, read-out: IC50 isolate 03/SF
[12] = isolate 04/F52, read-out: IC50 isolate 04/F52
[13] = isolate 05/VQ, read-out: IC50 isolate 05/VQ
[14] = spore germination, average of five isolates
[15] = spore germination, isolate 01/QTZ, average of two experiments
[16] = spore germination, isolate 02/ONX
[17] = spore germination, isolate 03/HZT
[18] = spore germination, isolate 04/GUA
[19] = spore germination, average of five isolates, read-out: CI50 Average
[20] = spore germination, isolate 01/QTZ, average of two experiments, read-out: CI50 isolate 01/QTZ
[21] = spore germination, isolate 02/ONX, read-out: CI50 isolate 02/ONX
[22] = spore germination, isolate 03/HZT, read-out: CI50 isolate 03/HZT
[23] = spore germination, isolate 04/GUA, read-out: CI50 isolate 04/GUA

Row | Molecule | IC50 (Drechsiera siccans; [8]) [µg/mL] | IC50 (Drechsiera siccans; [9]) [µg/mL] | IC50 (Drechsiera siccans; [10]) [µg/mL] | IC50 (Drechsiera siccans; [11]) [µg/mL] | IC50 (Drechsiera siccans; [12]) [µg/mL] | IC50 (Drechsiera siccans; [13]) [µg/mL] | Reduction factor of the sensitivity, isolate 01/QTZ ([5]; isolate 01/QTZ) | Reduction factor of the sensitivity, Average ([5]; average of five isolates) [a] | Reduction factor of the sensitivity, isolate 02/ONX ([5]; isolate 02/ONX) | Reduction factor of the sensitivity, isolate 03/HZT ([5]; isolate 03/HZT) | Reduction factor of the sensitivity, isolate 04/GUA ([5]; isolate 04/GUA) | Reduction factor of the sensitivity, isolate 05/CD [5] | also measured
1 | Fc1ccc([C@]2(Cn3cncn3)O[C@H]2c2ccccc2Cl)cc1 (racemic) [Epoxiconazole] | 0.33 (≈ 1 µM) | 0.28 (≈ 0.849 µM) | 0.28 (≈ 0.849 µM) | 0.4 (≈ 1.21 µM) | 0.32 (≈ 0.97 µM) | 0.4 (≈ 1.21 µM) |  |  |  |  |  |  | IC50 (Beard et al) [1]: 0.19 µg/mL (≈ 0.576 µM); Reduction (%) of control (soybean rust [2]): 50.0%; Control of soybean rust, crop 2005/06 (soybean rust [2]): 80.0%; Control of soybean rust, crop 2012/13 (soybean rust [2]): 40.0%
2 | CO/C=C(/C(=O)OC)c1ccccc1Oc1cc(Oc2ccccc2C#N)ncn1 [Azoxystrobin] |  |  |  |  |  |  | A > 53 a | >53 | A > 53 a | A > 53 a | A > 53 a | A > 53 a | Control efficiency reduced per year (soybean rust [3]): 13.8 % per year; Control of soybean rust in the 2013/14 (last) crop (soybean rust [4]): 16%; CI50 Average [5, 14]: A > 40 a ^ mg/L; CI50 isolate 01/QTZ [5, 15]: A > 40 a mg/L; CI50 isolate 02/ONX [5, 16]: A > 40 a mg/L; CI50 isolate 03/HZT [5, 17]: A > 40 a mg/L; CI50 isolate 04/GUA [5, 18]: A > 40 a mg/L; CI50 isolate 05/CD ([5]; spore germination): A > 40 a mg/L
3 | CC(C1CC1)C(O)(Cn1cncn1)c1ccc(Cl)cc1 (centres unmarked) [Cyproconazole] | 0.37 (≈ 1.27 µM) | 0.36 (≈ 1.23 µM) | 0.47 (≈ 1.61 µM) | 0.32 (≈ 1.1 µM) | 0.44 (≈ 1.51 µM) | 0.29 (≈ 0.994 µM) |  |  |  |  |  |  | Control (%) (soybean rust [6]): 38%; Severity (%) (soybean rust [6]): 58.1%; Reduction (%) of control (soybean rust [2]): 45.9%; Control of soybean rust, crop 2005/06 (soybean rust [2]): 96.0%; Control of soybean rust, crop 2012/13 (soybean rust [2]): 52.0%
4 | CO/N=C(/C(=O)OC)c1ccccc1COc1ccccc1C [Kresoxim methyl] |  |  |  |  |  |  | A > 53 a | >53 | A > 53 a | A > 53 a | A > 53 a | A > 53 a | IC50 [5, 19]: > 40 µg/mL; IC50 [5, 20]: > 40 µg/mL; IC50 [5, 21]: > 40 µg/mL; IC50 [5, 22]: > 40 µg/mL; IC50 [5, 23]: > 40 µg/mL
5 | CO/C=C(/C(=O)OC)c1ccccc1COc1cccc(C(F)(F)F)n1 [Picoxystrobin] |  |  |  |  |  |  | A > 53a | >53 | A > 53 a | A > 53 a | A > 53 a | A > 53 a | CI50 Average [5, 14]: >40 a mg/L; CI50 isolate 01/QTZ [5, 15]: A > 40 a mg/L; CI50 isolate 02/ONX [5, 16]: A > 40 a mg/L; CI50 isolate 03/HZT [5, 17]: A > 40 a mg/L; CI50 isolate 04/GUA [5, 18]: A > 40 a mg/L; CI50 isolate 05/CD ([5]; spore germination): A > 40 a mg/L
6 | CCCC1COC(Cn2cncn2)(c2ccc(Cl)cc2Cl)O1 (centres unmarked) [Propiconazole] | 0.34 (≈ 0.993 µM) | 0.32 (≈ 0.935 µM) | 0.51 (≈ 1.49 µM) | 0.3 (≈ 0.877 µM) | 0.3 (≈ 0.877 µM) | 0.3 (≈ 0.877 µM) |  |  |  |  |  |  | IC50 (Hunger & Brown) [1]: 0.04 µg/mL (≈ 0.117 µM)
7 | OC(Cc1ccccc1Cl)(Cn1nc[nH]c1=S)C1(Cl)CC1 (centres unmarked) [Prothioconazole] | 0.21 (≈ 0.61 µM) | 0.22 (≈ 0.639 µM) | < 0.1 | 0.26 (≈ 0.755 µM) | 0.25 (≈ 0.726 µM) | 0.14 (≈ 0.407 µM) |  |  |  |  |  |  | 
8 | COC(=O)N(OC)c1ccccc1COc1ccn(-c2ccc(Cl)cc2)n1 [Pyraclostrobin] |  |  |  |  |  |  | D 1.0 b |  | B 1.13 b | C 1.04 b | E 0.77 b | A 1.37 b | IC50 ([5]; read-out: CI50 isolate 05/CD): 1.03 µg/mL (≈ 2.66 µM); IC50 [5, 19]: 0.8 µg/mL (≈ 2.06 µM); IC50 [5, 20]: 0.75 µg/mL (≈ 1.93 µM); IC50 [5, 21]: 0.85 µg/mL (≈ 2.19 µM); IC50 [5, 22]: 0.78 µg/mL (≈ 2.01 µM); IC50 [5, 23]: 0.58 µg/mL (≈ 1.5 µM); IC50 ([5]; taken from Table 4 as sensitivity reference, read-out: CI50 standard of sensitivity): 0.75 µg/mL (≈ 1.93 µM)
9 | CC(C)(C)C(O)(CCc1ccc(Cl)cc1)Cn1cncn1 (centres unmarked) [Tebuconazole] | 0.57 (≈ 1.85 µM) | 0.66 (≈ 2.14 µM) | 0.49 (≈ 1.59 µM) | 0.65 (≈ 2.11 µM) | 0.61 (≈ 1.98 µM) | 0.44 (≈ 1.43 µM) |  |  |  |  |  |  | Control efficiency reduced per year (soybean rust [3]): 7.2 % per year; IC50 (Beard et al) [1]: 0.25 µg/mL (≈ 0.812 µM); IC50 (Hunger & Brown) [1]: 0.19 µg/mL (≈ 0.617 µM); Control (%) (soybean rust [6]): 42%; Severity (%) (soybean rust [6]): 49.9%; Reduction (%) of control (soybean rust [2]): 32.8%; Control of soybean rust, crop 2005/06 (soybean rust [2]): 95.0%; Control of soybean rust, crop 2012/13 (soybean rust [2]): 64.0%
10 | CON=C(C(=O)OC)c1ccccc1CON=C(C)c1cccc(C(F)(F)F)c1 [Trifloxystrobin] |  |  |  |  |  |  | A > 53 a | >53 | A > 53 a | A > 53 a | A > 53 a | A > 53 a | IC50 [5, 19]: > 40 µg/mL; IC50 [5, 20]: > 40 µg/mL; IC50 [5, 21]: > 40 µg/mL; IC50 [5, 22]: > 40 µg/mL; IC50 [5, 23]: > 40 µg/mL
11 | manganese ethylene bis(dithiocarbamate)+Zn [mancozeb] |  |  |  |  |  |  |  |  |  |  |  |  | Control of soybean rust, applied alone (soybean rust [7]): showed the efficiency; Control of yellow spot of wheat leaf, applied alone (wheat leaf spots): showed the efficiency

— US11272706B2, “Anti-resistance method” (UPL LIMITED, priority 2017, dated 2022)
